Values quoted from earlier work as cited in patent US9320746B2, “Method for treating intestinal fibrosis” (Sigmoid Pharma Limited, priority 2013, dated 2016).

Conditions: extensive first-pass elimination; compared with other corticosteroid formulations

- systemic bioavailability: 10-15%
Compound: CCCC1O[C@@H]2C[C@H]3[C@@H]4CCC5=CC(=O)C=C[C@]5(C)[C@H]4[C@@H](O)C[C@]3(C)[C@]2(C(=O)CO)O1 (stereo partly drawn) [budesonide, 16,17-butylidendioxy-11β,21-dihydroxy-1,4-pregnadien-3,20-dione]
